This is an account of results in ChEMBL document CHEMBL6127139, “Lysine-Targeted Covalent Inhibitors of PI3Kδ Synthesis and Screening by In Situ Interaction Upgradation” (J Med Chem, 2024).

The source made the active and inactive calls. The calls are words filed in the database; no cut-off is given here.

The nature of data set [1]: Growth inhibition of PI3Kdelta-overexpressing human SU-DHL-6 cells incubated for 72 hrs by MTT assay. Format: functional. A general note: Tetrazolium dyes change colour on reduction, which living cells bring about.
For the next data set, the system named is HCT-116. Briefly: Growth inhibition of human HCT-116 cells incubated for 72 hrs by MTT assay. The class given is functional.
For data set [2], the target named is Phosphatidylinositol 4,5-bisphosphate 3-kinase catalytic subunit beta isoform (Homo sapiens, UniProt P42338). Briefly: Inhibition of recombinant PI3Kbeta (unknown origin) using PIP2:3PS as substrate preincubated for 20 mins followed by ATP addition and measured after 1 hrs by ADP-Glo reagent based assay.
A short description of data set [3]: Growth inhibition of PI3Kdelta-overexpressing human Pfeiffer cells incubated for 72 hrs by MTT assay. Format: functional.
In data set [4] the test system is SU-DHL-6. In words: Inhibition of AKT phosphorylation in human SU-DHL-6 cells preincubated for 12 hrs followed by compound washout and measured upto 72 hrs by Western blot analysis. Format: cell-based.
Data set [5] is described as follows: Chemical reactivity of the compound with N-Boc-Lysine assessed as half-life at 1 uM by HPLC analysis. The class given is physicochemical. The conditions noted are these: incubation with N-Boc-Lysine.
Data set [6] can be described thus: Selectivity index, ratio of IC50 for inhibition of recombinant PI3Kalpha (unknown origin) using PIP2:3PS as substrate to IC50 for inhibition of recombinant PI3Kdelta (unknown origin) using PIP2:3PS as substrate.
Another data set deals with Raji. Briefly: Growth inhibition of human Raji cells incubated for 72 hrs by MTT assay. Format: functional.
For data set [7], the system named is SU-DHL-6. In words: Inhibition of AKT phosphorylation in human SU-DHL-6 cells preincubated for 12 hrs followed by compound washout and measured after 24 hrs by Western blot analysis. The class given is cell-based. Background: Immunoblotting shows a protein as a band on a membrane.
Data set [8] concerns the target T1, Phosphatidylinositol 4,5-bisphosphate 3-kinase catalytic subunit delta isoform (Homo sapiens, UniProt O00329).
T1 sequence (O00329 whole entry): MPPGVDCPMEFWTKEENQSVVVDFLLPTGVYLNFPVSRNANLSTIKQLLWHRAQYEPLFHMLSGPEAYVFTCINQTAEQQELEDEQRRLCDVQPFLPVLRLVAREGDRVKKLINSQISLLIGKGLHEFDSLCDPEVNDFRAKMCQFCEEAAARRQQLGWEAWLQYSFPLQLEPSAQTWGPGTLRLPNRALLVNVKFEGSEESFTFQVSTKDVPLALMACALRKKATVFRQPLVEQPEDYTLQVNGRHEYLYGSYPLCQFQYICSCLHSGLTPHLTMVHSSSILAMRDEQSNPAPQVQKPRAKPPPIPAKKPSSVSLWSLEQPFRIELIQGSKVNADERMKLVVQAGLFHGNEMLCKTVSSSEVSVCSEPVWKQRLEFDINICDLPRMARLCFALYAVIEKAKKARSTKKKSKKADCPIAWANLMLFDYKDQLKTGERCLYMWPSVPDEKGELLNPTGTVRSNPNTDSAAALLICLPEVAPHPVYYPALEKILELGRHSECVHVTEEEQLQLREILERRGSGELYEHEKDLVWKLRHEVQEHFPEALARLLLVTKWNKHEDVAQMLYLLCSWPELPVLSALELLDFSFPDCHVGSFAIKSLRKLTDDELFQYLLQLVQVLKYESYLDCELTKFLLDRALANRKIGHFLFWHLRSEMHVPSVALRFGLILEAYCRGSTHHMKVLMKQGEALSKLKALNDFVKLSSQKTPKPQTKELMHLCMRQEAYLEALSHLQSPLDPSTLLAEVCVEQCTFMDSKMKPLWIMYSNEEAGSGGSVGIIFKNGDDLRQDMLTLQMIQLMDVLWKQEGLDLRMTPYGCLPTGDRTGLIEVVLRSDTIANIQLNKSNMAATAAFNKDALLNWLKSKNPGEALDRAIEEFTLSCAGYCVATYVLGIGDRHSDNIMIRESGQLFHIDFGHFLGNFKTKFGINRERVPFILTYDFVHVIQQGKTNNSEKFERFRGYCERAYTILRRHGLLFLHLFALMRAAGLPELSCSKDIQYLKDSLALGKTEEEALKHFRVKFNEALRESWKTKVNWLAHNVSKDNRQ
Briefly: Inhibition of recombinant PI3Kdelta (unknown origin) using PIP2:3PS as substrate preincubated for 20 mins followed by ATP addition and measured after 1 hrs by ADP-Glo reagent based assay. (ADP-Glo first removes unused ATP, then detects ADP through luciferase.)

A further data set deals with MCF7. In words: Growth inhibition of human MCF7 cells incubated for 72 hrs by MTT assay. Format: functional.
Data set [9] has as its target Phosphatidylinositol 4,5-bisphosphate 3-kinase catalytic subunit gamma isoform (Homo sapiens, UniProt P48736). In words: Inhibition of recombinant PI3Kgamma (unknown origin) using PIP2:3PS as substrate preincubated for 20 mins followed by ATP addition and measured after 1 hrs by ADP-Glo reagent based assay.
In data set [10] the target is Phosphatidylinositol 4,5-bisphosphate 3-kinase catalytic subunit alpha isoform (Homo sapiens, UniProt P42336). Briefly: Inhibition of recombinant PI3Kalpha (unknown origin) using PIP2:3PS as substrate preincubated for 20 mins followed by ATP addition and measured after 1 hrs by ADP-Glo reagent based assay.
Data set [11] concerns SU-DHL-6. Briefly: Antiproliferative activity against human SU-DHL-6 cells assessed as inhibition of cell viability preincubated for 12 hrs followed by compound washout and measured after 60 hrs by MTT assay. The class given is functional, cell-based.
A short description of data set [12]: Selectivity index, ratio of IC50 for inhibition of recombinant PI3Kgamma (unknown origin) using PIP2:3PS as substrate to IC50 for inhibition of recombinant PI3Kdelta (unknown origin) using PIP2:3PS as substrate.
The nature of data set [13]: Selectivity index, ratio of IC50 for inhibition of recombinant PI3Kbeta (unknown origin) using PIP2:3PS as substrate to IC50 for inhibition of recombinant PI3Kdelta (unknown origin) using PIP2:3PS as substrate.
Data set [14] addresses T2, Phosphatidylinositol 4,5-bisphosphate 3-kinase catalytic subunit delta isoform (Homo sapiens) (UniProt O00329).
T2 sequence (whole entry): T1 sequence (O00329 whole entry)
Briefly: Covalent inhibition of PI3Kdelta (unknown origin) using PIP2:3PS as substrate assessed as second order rate constant (Kinact/Ki ratio) incubated upto 180 mins in presence of ATP by ADP-Glo reagent based assay.

Sequence of Phosphatidylinositol 4,5-bisphosphate 3-kinase catalytic subunit alpha isoform (P42336 whole entry, canonical isoform): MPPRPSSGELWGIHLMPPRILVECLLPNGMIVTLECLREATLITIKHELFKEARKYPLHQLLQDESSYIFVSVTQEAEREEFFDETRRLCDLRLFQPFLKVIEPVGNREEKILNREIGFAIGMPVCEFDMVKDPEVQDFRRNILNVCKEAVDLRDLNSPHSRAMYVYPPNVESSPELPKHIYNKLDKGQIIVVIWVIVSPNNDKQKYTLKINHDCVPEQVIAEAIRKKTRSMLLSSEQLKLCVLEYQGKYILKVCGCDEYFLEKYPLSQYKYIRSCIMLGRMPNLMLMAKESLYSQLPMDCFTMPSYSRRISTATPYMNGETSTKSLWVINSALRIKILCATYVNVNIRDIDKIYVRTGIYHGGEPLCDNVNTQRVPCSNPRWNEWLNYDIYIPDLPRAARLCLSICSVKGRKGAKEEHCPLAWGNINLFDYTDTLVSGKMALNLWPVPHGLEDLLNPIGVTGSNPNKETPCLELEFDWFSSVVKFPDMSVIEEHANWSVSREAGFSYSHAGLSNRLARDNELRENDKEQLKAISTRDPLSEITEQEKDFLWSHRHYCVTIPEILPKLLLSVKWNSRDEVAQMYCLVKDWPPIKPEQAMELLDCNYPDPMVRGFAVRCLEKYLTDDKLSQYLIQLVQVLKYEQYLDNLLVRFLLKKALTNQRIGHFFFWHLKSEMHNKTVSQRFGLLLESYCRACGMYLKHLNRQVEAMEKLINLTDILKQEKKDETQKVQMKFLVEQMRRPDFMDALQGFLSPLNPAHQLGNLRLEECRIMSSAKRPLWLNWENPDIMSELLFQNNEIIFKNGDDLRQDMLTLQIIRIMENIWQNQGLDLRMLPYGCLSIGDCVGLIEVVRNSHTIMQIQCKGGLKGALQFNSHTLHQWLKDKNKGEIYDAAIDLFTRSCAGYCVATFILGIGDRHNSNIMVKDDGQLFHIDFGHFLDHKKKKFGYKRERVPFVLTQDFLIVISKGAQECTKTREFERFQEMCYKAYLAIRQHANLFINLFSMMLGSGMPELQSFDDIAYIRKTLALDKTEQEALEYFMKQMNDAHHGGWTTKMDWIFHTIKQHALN
Sequence of Phosphatidylinositol 4,5-bisphosphate 3-kinase catalytic subunit beta isoform (P42338 whole entry, canonical isoform): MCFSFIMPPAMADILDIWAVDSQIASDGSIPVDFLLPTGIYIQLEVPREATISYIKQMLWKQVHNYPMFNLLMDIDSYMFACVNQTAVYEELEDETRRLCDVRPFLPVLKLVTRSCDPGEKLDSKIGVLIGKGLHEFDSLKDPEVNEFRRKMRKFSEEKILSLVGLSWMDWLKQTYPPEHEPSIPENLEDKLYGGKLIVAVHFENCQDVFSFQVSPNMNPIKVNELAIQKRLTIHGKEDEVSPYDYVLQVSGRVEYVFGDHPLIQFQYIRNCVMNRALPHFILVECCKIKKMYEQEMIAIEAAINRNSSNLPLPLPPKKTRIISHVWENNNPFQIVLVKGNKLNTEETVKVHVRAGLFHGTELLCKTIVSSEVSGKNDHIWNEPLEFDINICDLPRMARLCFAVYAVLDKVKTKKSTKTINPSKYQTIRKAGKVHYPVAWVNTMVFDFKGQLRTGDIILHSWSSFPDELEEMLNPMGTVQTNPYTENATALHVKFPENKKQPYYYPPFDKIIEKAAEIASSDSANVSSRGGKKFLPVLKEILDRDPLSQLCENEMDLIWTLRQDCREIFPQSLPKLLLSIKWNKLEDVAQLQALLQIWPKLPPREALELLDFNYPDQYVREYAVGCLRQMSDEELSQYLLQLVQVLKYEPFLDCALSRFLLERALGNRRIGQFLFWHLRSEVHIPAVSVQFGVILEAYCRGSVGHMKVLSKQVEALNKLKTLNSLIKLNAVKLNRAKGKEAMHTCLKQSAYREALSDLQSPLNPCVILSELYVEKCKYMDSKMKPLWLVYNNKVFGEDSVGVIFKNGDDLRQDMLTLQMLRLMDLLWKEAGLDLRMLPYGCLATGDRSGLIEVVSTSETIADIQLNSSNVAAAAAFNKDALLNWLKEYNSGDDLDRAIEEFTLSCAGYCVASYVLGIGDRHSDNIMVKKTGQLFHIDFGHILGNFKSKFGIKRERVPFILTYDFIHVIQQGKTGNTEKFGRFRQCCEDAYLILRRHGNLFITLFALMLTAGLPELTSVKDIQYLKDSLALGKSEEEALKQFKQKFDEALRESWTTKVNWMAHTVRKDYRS
Sequence of Phosphatidylinositol 4,5-bisphosphate 3-kinase catalytic subunit gamma isoform (P48736 whole entry, canonical isoform): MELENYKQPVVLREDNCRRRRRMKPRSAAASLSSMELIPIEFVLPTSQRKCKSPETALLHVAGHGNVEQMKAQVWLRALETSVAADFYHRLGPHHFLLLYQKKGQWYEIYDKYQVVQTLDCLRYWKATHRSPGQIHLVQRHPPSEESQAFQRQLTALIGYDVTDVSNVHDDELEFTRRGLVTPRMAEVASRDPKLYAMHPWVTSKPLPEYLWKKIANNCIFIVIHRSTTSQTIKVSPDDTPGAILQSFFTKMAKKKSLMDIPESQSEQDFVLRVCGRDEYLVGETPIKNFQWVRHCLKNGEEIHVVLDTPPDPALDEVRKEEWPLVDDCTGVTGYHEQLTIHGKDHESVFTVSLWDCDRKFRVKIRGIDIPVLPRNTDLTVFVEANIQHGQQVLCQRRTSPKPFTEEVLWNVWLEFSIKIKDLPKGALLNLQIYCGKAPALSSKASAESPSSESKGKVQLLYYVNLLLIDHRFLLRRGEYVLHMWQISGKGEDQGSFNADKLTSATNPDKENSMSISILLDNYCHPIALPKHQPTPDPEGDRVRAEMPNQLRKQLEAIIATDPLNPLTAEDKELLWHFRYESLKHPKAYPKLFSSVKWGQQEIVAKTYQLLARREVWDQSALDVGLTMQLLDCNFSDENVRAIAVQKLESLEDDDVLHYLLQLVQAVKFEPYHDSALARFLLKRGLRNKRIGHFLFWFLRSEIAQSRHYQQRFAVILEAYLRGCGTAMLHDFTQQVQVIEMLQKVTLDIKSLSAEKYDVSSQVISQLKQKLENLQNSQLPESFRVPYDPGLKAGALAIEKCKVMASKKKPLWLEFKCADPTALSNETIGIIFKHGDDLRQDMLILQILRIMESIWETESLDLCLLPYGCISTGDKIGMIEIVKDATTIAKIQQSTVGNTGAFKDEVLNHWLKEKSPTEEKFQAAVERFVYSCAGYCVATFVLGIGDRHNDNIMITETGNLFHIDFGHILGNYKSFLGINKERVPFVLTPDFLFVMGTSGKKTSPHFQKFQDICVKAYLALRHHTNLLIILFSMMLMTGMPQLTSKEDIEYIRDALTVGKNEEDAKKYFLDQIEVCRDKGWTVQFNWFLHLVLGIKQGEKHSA

In general, GI50 refers to the concentration at which growth is held to half of that of the control. Higher therefore signals lower sensitivity of the cells. One may read the IC50 as the concentration that gives 50% inhibition. The term half-life denotes the time in which the quantity being followed falls by half. With `COc1ncc(-c2ccc3ncnc(N[C@H]4CCN(C(=O)C5CCOCC5)C4)c3n2)cc1C(=O)Oc1ccc(F)cc1`, the GI50 in data set [1] was 4 nM; in the data set with HCT-116 it was 2140 nM; in [3], 97 nM; in the data set on Raji it was 6610 nM; in the data set on MCF7, 6330 nM. In addition, the IC50 was 241 nM in [2], 4.45 nM in data set [8], 63.7 nM in data set [9] and 14.1 nM in [10]. The inhibition entry in the data set with SU-DHL-6 [4] and in the data set on SU-DHL-6 [7] was “Active” each time. The half-life at 1 µM in data set [5] came out at 55 min. Moreover, the Ratio IC50 in data set [6] was 3; in data set [12], 14. Further, the outcome in the data set on SU-DHL-6 [11] was Active.

Regarding `COc1ncc(-c2ccc3ncnc(N[C@H]4CCN(C(=O)C5CCOCC5)C4)c3c2)cc1C#N`, the GI50 in [1] is 4550 nM; with Raji it was > 10000 nM. Also, the Ratio IC50 in [6] came out at 9; in data set [13], 97; in [12], 64.

In the case of `COc1ncc(-c2cc(-c3ncc(CN4CCN(C(C)C)CC4)o3)c3cn[nH]c3c2)cc1C(=O)Oc1ccc(F)cc1`, in [14], the Ratio is 3.75 10^4/M/s.

`COc1ncc(-c2ccc3ncnc(N[C@H]4CCN(C(=O)C5CCOCC5)C4)c3c2)cc1C(=O)Oc1ccc(F)cc1`: the GI50 was 3 nM in data set [1]; 1520 nM with HCT-116; 130 nM in data set [3]; 7590 nM in the data set with Raji; > 10000 nM in the data set with MCF7. For the same compound, the 50% inhibitory concentration (IC50) in data set [2] turned out to be 30 nM; in [8], 2.24 nM; in data set [9], 208 nM; in [10], 25.6 nM. The inhibition entry in the data set with SU-DHL-6 [4] and in the data set with SU-DHL-6 [7] was “Active” each time. Moreover, in data set [5], the half-life at 1 µM came to 67 min. The results for the Ratio IC50 in [6], in data set [13] and in data set [12] were 11, 13 and 92, respectively. The outcome with SU-DHL-6 [11] was Active.

Consider `COC(=O)c1cc(-c2ccc3ncnc(N[C@H]4CCN(C(=O)C5CCOCC5)C4)c3n2)cnc1OC`, for which the GI50 was determined as 42 nM in data set [1] and 447 nM in data set [3]. For the same compound, the half-life at 1 µM in [5] was > 1440 min. The IC50 in data set [8] is 1.21 nM; in data set [10] it was > 1000 nM.

With `COc1ncc(-c2ccc3ncnc(N[C@H]4CCN(C(=O)C5CCOCC5)C4)c3n2)cc1C(=O)Oc1ccc(Cl)cc1`, the figures for the GI50 in data set [1] and in data set [3] were 157 nM and 776 nM, respectively. For the same compound, the half-life at 1 µM in data set [5] was determined as 10.1 min. Also, the values for the IC50 in [8] and in data set [10] were 2.57 nM and > 1000 nM, respectively.

As for `COc1ncc(-c2ccc3ncnc(N[C@H]4CCN(C(=O)C5CCOCC5)C4)c3n2)cc1C(=O)Oc1ccc(C(F)(F)F)cc1`, the values for the GI50 in data set [1] and in [3] were 96 nM and 1260 nM, respectively. Further, the half-life at 1 µM in data set [5] was 1.7 min. Moreover, the figures for the IC50 in data set [8] and in data set [10] were 1.01 nM and 93.3 nM, respectively.

On to `COc1ncc(-c2ccc3ncnc(N[C@H]4CCN(C(=O)C5CCOCC5)C4)c3c2)cc1C(=O)Oc1ccc(C(F)(F)F)cc1`, for which the GI50 in data set [1] amounted to 133 nM; in [3], 816 nM. The half-life at 1 µM in data set [5] was 1.9 min. Besides, the IC50 in [8] was 0.93 nM; in data set [10], 330 nM.
